Laboratory results taken from the NIST ThermoML archive (doi:10.1016/j.jct.2013.07.003).
Numbers after ± are expanded uncertainties.

Experiments:
[1] = relative permittivity at various frequencies (dimensionless); xn = mol fraction of the nth substance listed; conditions: 101 kPa, Liquid, Frequency=0.1 MHz, Coaxial cylinder capacitor
[2] = refractive index (Na D-line) (dimensionless); xn = mol fraction of the nth substance listed; conditions: 101 kPa, Liquid, Standard Abbe refractometry

CC(O)CCO (stereo not given) [1,3-butanediol] + C1COCCO1
Conditions	refractive index, 298.2 K	refractive index, 303.2 K	refractive index, 308.2 K	refractive index, 313.2 K	refractive index, 318.2 K	relative permittivity, 298.2 K	relative permittivity, 303.2 K	relative permittivity, 308.2 K	relative permittivity, 313.2 K	relative permittivity, 318.2 K
[1], x1 = 0.103	–	–	–	–	–	3.36 ± 0.02	3.34 ± 0.02	3.32 ± 0.02	3.3 ± 0.02	3.28 ± 0.02
[1], x1 = 0.204	–	–	–	–	–	4.91 ± 0.02	4.85 ± 0.02	4.79 ± 0.02	4.72 ± 0.02	4.67 ± 0.02
[1], x1 = 0.301	–	–	–	–	–	6.73 ± 0.02	6.64 ± 0.02	6.54 ± 0.02	6.45 ± 0.02	6.38 ± 0.02
[1], x1 = 0.401	–	–	–	–	–	8.96 ± 0.02	8.82 ± 0.02	8.66 ± 0.02	8.52 ± 0.02	8.38 ± 0.02
[1], x1 = 0.451	–	–	–	–	–	10.17 ± 0.02	10 ± 0.02	9.83 ± 0.02	9.67 ± 0.02	9.5 ± 0.02
[1], x1 = 0.5	–	–	–	–	–	11.44 ± 0.02	11.23 ± 0.02	11.02 ± 0.02	10.85 ± 0.02	10.61 ± 0.02
[1], x1 = 0.548	–	–	–	–	–	12.76 ± 0.02	12.5 ± 0.02	12.25 ± 0.02	12.03 ± 0.02	11.77 ± 0.02
[1], x1 = 0.61	–	–	–	–	–	14.6 ± 0.03	14.3 ± 0.02	13.94 ± 0.02	13.63 ± 0.02	13.3 ± 0.02
[1], x1 = 0.699	–	–	–	–	–	17.46 ± 0.03	17.03 ± 0.03	16.58 ± 0.03	16.15 ± 0.03	15.73 ± 0.02
[1], x1 = 0.788	–	–	–	–	–	20.41 ± 0.03	19.88 ± 0.03	19.36 ± 0.03	18.88 ± 0.03	18.38 ± 0.03
[1], x1 = 0.897	–	–	–	–	–	24.35 ± 0.03	23.72 ± 0.03	23.02 ± 0.03	22.41 ± 0.03	21.79 ± 0.03
[1], x1 = 0.951	–	–	–	–	–	26.42 ± 0.04	25.72 ± 0.04	24.98 ± 0.04	24.29 ± 0.03	23.61 ± 0.03
[1], x1 = 1	–	–	–	–	–	28.52 ± 0.04	27.66 ± 0.04	26.77 ± 0.04	25.98 ± 0.04	25.22 ± 0.04
[2], x1 = 0.103	1.4217 ± 0.0005	1.4195 ± 0.0005	1.4165 ± 0.0005	1.414 ± 0.0005	1.4112 ± 0.0005	–	–	–	–	–
[2], x1 = 0.204	1.4235 ± 0.0005	1.4213 ± 0.0005	1.4183 ± 0.0005	1.4161 ± 0.0005	1.4136 ± 0.0005	–	–	–	–	–
[2], x1 = 0.301	1.425 ± 0.0005	1.423 ± 0.0005	1.4202 ± 0.0005	1.418 ± 0.0005	1.4155 ± 0.0005	–	–	–	–	–
[2], x1 = 0.401	1.4268 ± 0.0005	1.425 ± 0.0005	1.4222 ± 0.0005	1.4202 ± 0.0005	1.4177 ± 0.0005	–	–	–	–	–
[2], x1 = 0.451	1.4279 ± 0.0005	1.4258 ± 0.0005	1.4233 ± 0.0005	1.4213 ± 0.0005	1.419 ± 0.0005	–	–	–	–	–
[2], x1 = 0.5	1.4287 ± 0.0005	1.4267 ± 0.0005	1.4243 ± 0.0005	1.4222 ± 0.0005	1.42 ± 0.0005	–	–	–	–	–
[2], x1 = 0.548	1.4296 ± 0.0005	1.4275 ± 0.0005	1.4255 ± 0.0005	1.423 ± 0.0005	1.4209 ± 0.0005	–	–	–	–	–
[2], x1 = 0.61	1.431 ± 0.0005	1.4285 ± 0.0005	1.4262 ± 0.0005	1.4242 ± 0.0005	1.4221 ± 0.0005	–	–	–	–	–
[2], x1 = 0.699	1.4325 ± 0.0005	1.4308 ± 0.0005	1.4285 ± 0.0005	1.4267 ± 0.0005	1.4247 ± 0.0005	–	–	–	–	–
[2], x1 = 0.788	1.4342 ± 0.0005	1.4326 ± 0.0005	1.4303 ± 0.0005	1.4287 ± 0.0005	1.4269 ± 0.0005	–	–	–	–	–
[2], x1 = 0.897	1.4363 ± 0.0005	1.4348 ± 0.0005	1.4333 ± 0.0005	1.4314 ± 0.0005	1.4297 ± 0.0005	–	–	–	–	–
[2], x1 = 0.951	1.4374 ± 0.0005	1.4361 ± 0.0005	1.4347 ± 0.0005	1.4329 ± 0.0005	1.4313 ± 0.0005	–	–	–	–	–
[2], x1 = 1	1.4384 ± 0.0005	1.4371 ± 0.0005	1.4356 ± 0.0005	1.4341 ± 0.0005	1.4328 ± 0.0005	–	–	–	–	–
